Measurements as given in patent US8637679B2, “Process for the isolation of organic compounds useful for the treatment of cancer” (Council of Scientific and Industrial Research, priority 2011, dated 2014).

Columns and labels:
In vivo toxicity in mice = assay: In vivo toxicity in mice
Procedure: Animals were examined for 1 month after the administration of acute toxic dose (150 mg/kg/day); there was no change in behavior, feeding habit, total body mass and in number of biochemical and haematological parameters.

Molt-3 = assay: MTT cell viability assay, Molt-3; type: cell-based, human; details: Homo sapiens; Molt-3, 48 hrs
Procedure: (§1) Human cervical cancer cell lines (HeLa, ME-180 and SiHa), brain tumor cell lines (U87MG, U373MG, U87MG EGFRvIII, T98G, A172 and LN229), lymphoid leukemia (MOLT-3, MOLT-4, REH and CEMC-7), myloid leukemia (K562), pancreatic cancer (MIAPaCa-2, AsPC-1, Panc-1 and Panc 10.05), lung cancer (A549) and colon cancer (HCT116 and SW480) cell lines from American Type Culture Collection, Manassas, Va., USA were grown in IMDM or RPMI (cell specific) Medium supplemented with 10% fetal bovine serum and 1% antibiotic-antimycotic. Cells were cultured in 37° C. in an atmosphere of 5% CO2.
(§2) Viability of cancer cell lines after treatment as at the indicated times was determined by MTT assay. Briefly, 10,000 cells were plated in triplicate in 96 well plates and incubated for 24 and 48 hours in complete media in presence of varying dose of mahanine (0-50 μM). 100 ug MTT was added in each well. Incubate the plate for 1-4 hours at 37° C. and humidified 5% CO2 atmosphere. Absorbance was recorded at 550 nm with 96 well plate readers.

U87MG = assay: MTT cell viability assay, U87MG; type: cell-based, human; details: Homo sapiens, U-87 MG, 48 hrs
Procedure: as §1, §2

MIAPaCa-2 = assay: In vitro colony formation on matrigel; type: cell-based, human
NCIH23 = assay: MTT cell viability assay, NCIH23; type: cell-based, human; details: Homo sapiens, NCI-H23; NCIH23, 48 hrs
Procedure: as §2

ME180 = assay: MTT cell viability assay, ME180; type: cell-based; details: Homo sapiens, ME-180, ME180, 48 hr
Procedure: as §1, §2

BxPC-3 = assay: Scratch-wound haptotaxis assay, BxPC-3; type: cell-based, human; details: BxPC-3, highest treated cells, 6 hrs
Procedure: Highly and moderately invasive pancreatic cancer cell lines, MIAPaCa-2 and BxPC3 (1×10^6/ml/well) were cultured to >90% confluence in 6 well plate. Consequently, cell were rinsed with PBS and starved in low serum media (2 ml containing 0.5%-0.1% serum in RPMI-1640 for MIAPaCa-2 and BxPC-3) for overnight. On the following day, three separate scratch-wounds were made through the confluent cells. Scratched plate was rinsed with PBS and replaced with serum starved media containing successive doses of mahanine or EtOH for 6 hrs. Picture was taken by using phase contrast at 10× accordingly.

U373MG = assay: MTT cell viability assay, U373MG; type: cell-based, human; details: Homo sapiens, U373 MG, 48 hrs
Procedure: as §1, §2

[1] = Tissue toxicity in K562 xenograft bearing nude mice; type: in vivo
SiHa = assay: 7-AAD flow cytometric apoptosis, SiHa; type: cell-based, human; details: 25 μM mahanine
Procedure: U87MG, LN229, HeLa, SiHa and ME180 (1×10^6 cells) cells were cultured in 6-well plates in presence or absence of Mahanine (25 μM) for 24 hrs. Cells were washed in PBS, incubated with 7-Aminoactinomycin D (7-AAD) at 4° C. for 20 min and processed. Data acquisition was done on a FACSCalibur flow cytometer (BD) at excitation wavelength at 488 nm and emission wavelength at 647 nm and analyzed with CellQuestPro software.

SW480 = assay: MTT cell viability assay, SW480; type: cell-based, human; details: Homo sapiens; SW480, 48 hrs
Procedure: as §1, §2

[2] = tested on: intracellular Ca2+ in MIAPaCa-2; assay: Intracellular Ca2+ measurement (Fluo-3/AM); type: cell-based, human; details: MIAPaCa-2, with and without extra-cellular Ca2+
Procedure: MIAPaCa-2 cells (3×10^6), treated with mahanine, were washed in 1× Hanks Balanced Salt Solution (HBSS) [Gibco, Invitrogen Corporation, USA] and then loaded with Fluo-3/AM (2 μM, Calbiochem, Germany) in HBSS containing 1.26 mM CaCl2. The cells were incubated at 37° C. for 30 min in dark with gentle agitation. All extracellular Fluo-3/AM was removed by two-three times washing in aforesaid buffer. The level of cytoplasmic Ca^2+ within Fluo-3/AM loaded MIAPaCa-2 was determined in time dependent manner in the absence and presence of CaCl2 (1.26 mM CaCl2).

HeLa = assay: MTT cell viability assay, HeLa; type: cell-based, human
Procedure: as §1, §2

Panc10.05 = assay: MTT cell viability assay, Panc10.05; type: cell-based, human; details: Homo sapiens, Panc1005; Panc10.05, 48 hrs
Procedure: as §1, §2

[3] = tested on: glioma (T98G) and cervical (HeLa) cancer cells; assay: Comparative cytotoxicity of mahanine and analogs by MTT; type: cell-based, human
Procedure: as §1, §2

U87MGEGFRvIII = assay: MTT cell viability assay, U87MGEGFRvIII; type: cell-based; details: Homo sapiens, 48 hrs treatment
Procedure: as §1, §2

Storage stability = type: physicochemical

Work on `CC(C)=CCCC1(C)C=Cc2c(c(C)cc3c2[nH]c2cc(O)ccc23)O1` (centres unmarked) [Mahanine, mahanine] yielded a Creatinine (In vivo toxicity in mice; mouse, in vivo) of 3.72 mg/dL, a Hb (In vivo toxicity in mice; mouse, in vivo) of 13.64 gm/dl and an SGOT (In vivo toxicity in mice; mouse, in vivo) of 174.0 Unit/ml. The SGPT (In vivo toxicity in mice; mouse, in vivo) was 34.7 Unit/ml, the Urea (In vivo toxicity in mice; mouse, in vivo) was 48.6 mg/dL and the tolerated dose (In vivo toxicity in mice; normal Balb/c mice, consecutive 20 days) was 150 mg/kg/day. The IC50 (Molt-3) was 10.6 ± 0.3 µM, the IC50 (U87MG) was 13.4 ± 0.4 µM and the colony formation (MIAPaCa-2; 15 μM, within 24 hrs) was “absolutely inhibited”. For the same compound, the colony formation (MIAPaCa-2; 20 μM, after 72 hrs) was “could not colonize”, the inhibition at 10 µM (MIAPaCa-2; Homo sapiens, MIA PaCa-2, 10 μM, within 24 hrs) was about 20% and the IC50 (NCIH23) was 7.08 ± 0.1 µM. For the same compound, the IC50 (ME180) was 14.6 µM, the “wound closure / migratory cells” value (BxPC-3) was under 5% and the IC50 (U373MG) was 16.8 ± 0.6 µM. For the same compound, the “toxicity towards nonspecific tissues (lung, liver, spleen)” value [1] was “no toxic effect”, the “apoptosis (7-AAD+ve cells)” value (SiHa) was 97.13% and the IC50 (SW480) was 16 ± 0.3 µM. For the same compound, the “time to maximum enhancement of intracellular Ca2+ pool” value [2] was at most 15 min, the IC50 (HeLa; 48 hrs) was 13.2 ± 1.1 µM and the IC50 (HeLa; Homo sapiens, 48 h) was 10.9 µM. The IC50 (Panc10.05) was 18.5 ± 1.6 µM, the “fold less IC50 of mahanine compared to mahanimbine” value [3] was 2-2.5 fold and the IC50 (U87MGEGFRvIII) was about 14 µM. For the same compound, the stable storage time (Storage stability; dissolved in ethanol, −20° C.) was over 6 months and the “stability at room temperature” value (Storage stability; purified compound) was “stable in room temperature”.
